From article PMC4770324 (Journal of Medicinal Chemistry, 2016)

Assay: Chemical stability on storage

- chemical stability in air: chemical instability
Structure (SMILES): O=c1[nH]cnc2c(-n3cc(CCN4CCC(c5cc(F)cc(F)c5)CC4)cn3)nccc12 [Compound 54l]
